Patent US11578056B2, “Solid forms comprising (S)-2-(2,6-dioxopiperidin-3-yl)-4-((2-fluoro-4-((3-morpholinoazetidin-1-yl)methyl)benzyl)amino)isoindoline-1,3-dione and salts thereof, and compositions comprising and methods of using the same” (Celgene Corporation, priority 2019, dated 2023)

Columns and labels:
Format in all cases: physicochemical
[1] = Dynamic vapor sorption (DVS) hygroscopicity
Protocol: Dynamic vapor sorption (DVS) was measured using DVS advantage (Surface Measurement Systems Ltd). The samples were tested under isotherm (25° C.) at a targeted RH of 0 to 95% full cycle in step mode. For an isotherm test, the chamber temperature is maintained by a water bath at constant 25.0±1.0° C. The relative humidity in the sample chamber is generated by combining different flows of wet and dry nitrogen with variable flow rates. The analysis was performed in 10% RH increments. Sampling rate is 1 sec save data rate is 20 sec. The dm/dt (%) value was set at 0.001 with a dm/dt window of 5 min., a minimum stability duration time of 10 min, and a maximum stage time of 180 min. The sample's equilibrium weight corresponding to each RH was recorded. A sorption isotherm is obtained by plotting equilibrium moisture content versus RH.

[2] = Long term solid state stability (double LDPE bags in HDPE container)
Protocol: Long Term Solid State Stability: Form A of a hydrochloride salt of Compound 1 (packaged in double LDPE bags in HDPE container) was stored up to 3 months at 25° C./60% RH, 30° C./65% RH, and 40° C./75% RH storage conditions. […] Therefore, a re-test period of 12 months is proposed when stored at or below 25° C.

[3] = Shear sensitivity (compression, XRPD); conditions: compressed under 700 and 1100 lbs for 1 minute
Protocol: Shear Sensitivity: Form A of a hydrochloride salt of Compound 1 was compressed under 700 and 1100 lbs for 1 minute and analyzed by XRPD.

[4] = Solid state stability, Accelerated Stability Assessment Program (ASAP)
Protocol: (§1) Solid State Stability: Solid state stability of Form A of a hydrochloride salt of Compound 1 was evaluated using Accelerated Stability Assessment Program (ASAP). Forced degradation storage conditions were used between 60-80° C. and 0-80% RH for up to 2 weeks. A photostress study under 2 times ICH conditions was also conducted in the solid state. The solid samples were analyzed for both chemical and chiral stability. At the end of the study, the crystalline form of the compound was verified by XRPD.

[5] = Solid state photostress study under 2 times ICH conditions
Protocol: as §1

**Q.** Which results are given for Cl.O=C1CC[C@H](N2C(=O)c3cccc(NCc4ccc(CN5CC(N6CCOCC6)C5)cc4F)c3C2=O)C(=O)N1?
**A.** solid form after DVS ([1]; after DVS): remained as Form A; hygroscopicity (DVS) ([1]; below 90% RH): moderate hygroscopic; water uptake expressed as moles of water (DVS) ([1]; corresponding to the about 3.0% w/w uptake): about 1 mole; sorption/desorption reversibility (DVS) ([1]; during two full cycles): almost reversible; moisture picked up (DVS) ([1]; from dry up to 90% RH): ~2.9 % wt; mass increase (DVS) ([1]; increase in RH from about 0% to about 95%): about 3.0%; water uptake (DVS) ([1]; sorption at all humidities, FIG. 7): about 3.0 % w/w; Appearance (Yellow powder) ([2]; 25° C./60% RH, 0 Month): Conforms; Chiral Purity (%) ([2]; 25° C./60% RH, 0 Month): 96.0%; Chromatographic Purity (%) ([2]; 25° C./60% RH, 0 Month): 98.6%; Solid forms (XRPD), consistent with Form A ([2]; 25° C./60% RH, 0 Month): Conforms; Total Related Impurities (%) ([2]; 25° C./60% RH, 0 Month): 1.41%; Water (%) ([2]; 25° C./60% RH, 0 Month): 1.4%; Appearance (Yellow powder) ([2]; 25° C./60% RH, 1 Month): Conforms; Chiral Purity (%) ([2]; 25° C./60% RH, 1 Month): 95.7%; Chromatographic Purity (%) ([2]; 25° C./60% RH, 1 Month): 98.5%; Solid forms (XRPD), consistent with Form A ([2]; 25° C./60% RH, 1 Month): Conforms; Total Related Impurities (%) ([2]; 25° C./60% RH, 1 Month): 1.50%; Water (%) ([2]; 25° C./60% RH, 1 Month): 1.7%; Appearance (Yellow powder) ([2]; 25° C./60% RH, 3 Month): Conforms; Chiral Purity (%) ([2]; 25° C./60% RH, 3 Month): 95.7%; Chromatographic Purity (%) ([2]; 25° C./60% RH, 3 Month): 98.5%; Solid forms (XRPD), consistent with Form A ([2]; 25° C./60% RH, 3 Month): Conforms; Total Related Impurities (%) ([2]; 25° C./60% RH, 3 Month): 1.55%; Water (%) ([2]; 25° C./60% RH, 3 Month): 1.9%; long term solid state stability ([2]; 25° C./60% RH, 30° C./65% RH and 40° C./75% RH for 3 months, double LDPE bags in HDPE container): demonstrate stability; Appearance (Yellow powder) ([2]; 30° C./65% RH, 0 Month): Conforms; Chiral Purity (%) ([2]; 30° C./65% RH, 0 Month): 96.0%; Chromatographic Purity (%) ([2]; 30° C./65% RH, 0 Month): 98.6%; Total Related Impurities (%) ([2]; 30° C./65% RH, 0 Month): 1.41%; Water (%) ([2]; 30° C./65% RH, 0 Month): 1.4%; Appearance (Yellow powder) ([2]; 30° C./65% RH, 1 Month): Conforms; Chiral Purity (%) ([2]; 30° C./65% RH, 1 Month): 94.5%; Chromatographic Purity (%) ([2]; 30° C./65% RH, 1 Month): 98.4%; Total Related Impurities (%) ([2]; 30° C./65% RH, 1 Month): 1.56%; Water (%) ([2]; 30° C./65% RH, 1 Month): 1.9%; Appearance (Yellow powder) ([2]; 30° C./65% RH, 3 Month): Conforms; Chiral Purity (%) ([2]; 30° C./65% RH, 3 Month): 95.8%; Chromatographic Purity (%) ([2]; 30° C./65% RH, 3 Month): 98.4%; Total Related Impurities (%) ([2]; 30° C./65% RH, 3 Month): 1.63%; Water (%) ([2]; 30° C./65% RH, 3 Month): 2.0%; Appearance (Yellow powder) ([2]; 40° C./75% RH, 0 Month): Conforms; Chiral Purity (%) ([2]; 40° C./75% RH, 0 Month): 96.0%; Chromatographic Purity (%) ([2]; 40° C./75% RH, 0 Month): 98.6%; Solid forms (XRPD), consistent with Form A ([2]; 40° C./75% RH, 0 Month): Conforms; Total Related Impurities (%) ([2]; 40° C./75% RH, 0 Month): 1.41%; Water (%) ([2]; 40° C./75% RH, 0 Month): 1.4%; Appearance (Yellow powder) ([2]; 40° C./75% RH, 1 Month): Conforms; Chiral Purity (%) ([2]; 40° C./75% RH, 1 Month): 96.0%; Chromatographic Purity (%) ([2]; 40° C./75% RH, 1 Month): 98.5%; Solid forms (XRPD), consistent with Form A ([2]; 40° C./75% RH, 1 Month): Conforms; Total Related Impurities (%) ([2]; 40° C./75% RH, 1 Month): 1.52%; Water (%) ([2]; 40° C./75% RH, 1 Month): 1.8%; Appearance (Yellow powder) ([2]; 40° C./75% RH, 3 Month): Conforms; Chiral Purity (%) ([2]; 40° C./75% RH, 3 Month): 96.1%; Chromatographic Purity (%) ([2]; 40° C./75% RH, 3 Month): 98.4%; Solid forms (XRPD), consistent with Form A ([2]; 40° C./75% RH, 3 Month): Conforms; Total Related Impurities (%) ([2]; 40° C./75% RH, 3 Month): 1.60%; Water (%) ([2]; 40° C./75% RH, 3 Month): 2.0%; proposed re-test period ([2]; when stored at or below 25° C.): 12 months; solid form after compression (XRPD) [3]: remained the same; changes in assay ([4]; 60-80° C., 0-80% RH, up to 2 weeks, except 80° C./0% RH after 1 week and 2 weeks): < 5%; LC Purity (%) ([4]; 60° C., 50% RH, 7 days): 98.51%; R-isomer % area ([4]; 60° C., 50% RH, 7 days): 1.26 % area; LC Purity (%) ([4]; 60° C., 50% RH, 14 days): 98.47%; R-isomer % area ([4]; 60° C., 50% RH, 14 days): 1.28 % area; LC Purity (%) ([4]; 70° C., 20% RH, 7 days): 98.28%; R-isomer % area ([4]; 70° C., 20% RH, 7 days): 1.26 % area; LC Purity (%) ([4]; 70° C., 20% RH, 14 days): 98.50%; R-isomer % area ([4]; 70° C., 20% RH, 14 days): 1.26 % area; LC Purity (%) ([4]; 70° C., 75% RH, 7 days): 98.48%; R-isomer % area ([4]; 70° C., 75% RH, 7 days): 1.34 % area; LC Purity (%) ([4]; 70° C., 75% RH, 14 days): 98.24%; R-isomer % area ([4]; 70° C., 75% RH, 14 days): 1.49 % area; LC Purity (%) ([4]; 80° C., 0% RH, 7 days): 91.18%; R-isomer % area ([4]; 80° C., 0% RH, 7 days): 1.77 % area; LC Purity (%) ([4]; 80° C., 0% RH, 14 days): 86.98%; R-isomer % area ([4]; 80° C., 0% RH, 14 days): 1.28 % area; LC Purity (%) ([4]; 80° C., 40% RH, 7 days): 98.32%; R-isomer % area ([4]; 80° C., 40% RH, 7 days): 1.77 % area; LC Purity (%) ([4]; 80° C., 40% RH, 14 days): 98.29%; R-isomer % area ([4]; 80° C., 40% RH, 14 days): 1.30 % area; LC Purity (%) ([4]; 80° C., 70% RH, 7 days): 98.43%; R-isomer % area ([4]; 80° C., 70% RH, 7 days): 1.36 % area; LC Purity (%) ([4]; 80° C., 70% RH, 14 days): 98.21%; R-isomer % area ([4]; 80° C., 70% RH, 14 days): 1.45 % area; change of crystalline form (XRPD) ([4]; 80° C./70% RH after 10 days vs control): No change of crystalline form; ASAP stability conclusion ([4]; ASAP stability results): can be considered stable; LC Purity (%) ([4]; Heat/Humidity Control): 98.44%; R-isomer % area ([4]; Heat/Humidity Control): 1.26 % area; maximum change in chiral purity ([4]; across all conditions, maximum under high humidity conditions): ≤ 0.2%; LC Purity (%) ([5]; 2x ICH Photo Stressed): 94.80%; R-isomer % area ([5]; 2x ICH Photo Stressed): 1.17 % area; LC Purity (%) ([5]; Photo Stressed Control): 98.45%; R-isomer % area ([5]; Photo Stressed Control): 1.27 % area; changes in assay ([5]; photostability conditions (2 times ICH), solid state): < 4%
